Data on 1 compound can be found in US20220062383A1, “REGULATION OF A FOREIGN BODY RESPONSE” (THE JOHNS HOPKINS UNIVERSITY, priority 2019, published 2022).

In experiment [1] the test system is foreign body response to PCL implants (volumetric muscle loss model). Briefly: qRT-PCR gene expression in tissue of PCL-implanted mice after IL17A/F NAb and/or senolytic treatment. Type of experiment: in vivo, C57BL/6 mice. The settings on record: PCL implant. How it is done: All animal procedures were performed in accordance with an approved JHU IACUC protocol. Female mice were aged six to eight weeks-old. Several strains were utilized, including wild type C57BL/6j (Jackson Laboratories, Stock #00064), Rag2/OT-II (Taconic Stock #11490), IL17A-/- and IL17RA-/- (courtesy of Dr. Yoichiro Iwakura, University of Tokyo, Tokyo, Japan and Dr. Tomas Mustelin, Amgen, Seattle, respectively). Defects in muscle for material implantation were created as previously described (68). The resulting bilateral muscle defects were filled with 30 mg of a synthetic material. Synthetic materials tested include PCL (particulate, Mn=50000 g/mol, mean particle size<600 μm, Polysciences), ultrahigh molecular weight PE (particulate, Mn=5000 k g/mol, mean particle size=150 μm, Goodfellow), medical graded Silicone (sheet, Summit Medical), PEG hydrogels. PEG hydrogels were made with polyethylene glycol-diacrylate (PEG-DA, Mn=3400). PEG-DA (Polysciences) in PBS at 10% w/v concentration was mixed with photoinitiator (Irgacure 2959 solubilized to 10% w/v in 70% ethanol) to a final concentration of 0.05%. A 50 μL volume solution was cast onto each well of a flat bottom 96 wells plate. The solution was photocrosslinked via UV light for 30 mins to form a hydrogel sheet. Both silicone and PEG hydrogels were morselized into particles with a scalpel and placed into the defect. Control implants were injected with 50 μL of PBS (as a no implant control). All materials were UV sterilized prior to use. Directly after surgery, mice were given subcutaneous carprofen (Rimadyl®, Zoetis) at 5 mg/kg for pain relief. Mice were euthanized, and their implants were extracted at different time points: 1, 3, 6, or 12-weeks post-surgery. Additional modes of implantation were subcutaneous and intra-muscular injection. Briefly, synthetic materials were implanted subcutaneously (30 mg) on both flanks of the mice, or injected directly into the quadricep muscles through a 16 G syringe (5 mg of materials). Total RNA was isolated from whole tissue using TRIzol reagent and Qiagen's RNeasy kits. qRT-PCR was performed using Power SYBR Green Master Mix (Applied Biosystems) or TaqMan Gene Expression Master Mix (Applied Biosystems) according to manufacturer's instructions. Briefly, 2 μg of total RNA was used to synthesize cDNA using Superscript IV VILO Master Mix (ThermoFisher Scientific). The cDNA concentration was set to 50 ng/well (in a total volume of 20 μL PCR reaction). The qRT-PCR reactions were performed on the StepOne Plus Real-Time PCR System (ThermoFisher Scientific) using manufacturer recommended settings for quantitative and relative expression. Mice received 100 μl intraperitoneal (IP) injections of anti-IL17A (100 μg/ml, Cat #P13705.15) and anti-IL17F (100 μg/ml, Cat #P56220.17) (provided by Amgen) or isotype control (rat IgG2a, ThermoFisher Scientific, Cat #02-9688) every other day for a week. IL6 blocking antibody was administrated at 100 μg/ml (BioXCell, clone MP5-20F3) per mouse per day for 5 consecutive days. For senolytic treatment, mice received IP and intramuscular (IM) injections of Navitoclax (100 mg/kg, Selleckchem, Cat #HY-10087) for 5 consecutive days or vehicle control (5% DMSO, 3% Tween 80 in PBS). Co-administration of anti-I[…] and senolytic treatment were also evaluated. All mice received treatments at 4-weeks post-surgery for a total of 5 injections (1 injection per day per mouse), and were harvested in the following 2 weeks. The nCounter differential gene expression system was used to assess readable transcripts via the nanoString PanCancer Immune Profiling Panel. We utilized the nSolver software (version 3.0, nanoString Technologies, Inc.). All analyses of qRT-PCR data utilized the Livak Method, wherein ΔΔCt values are calculated, and then reported as relative quantification values calculated by […] (69). Treatment data points are normalized to either healthy or saline treated controls. β2M was utilized as the reference gene. […]
In general terms: Quantitative PCR measures a nucleic acid by following its amplification.

In experiment [2] the test system is fibrosis around PCL implants (volumetric muscle loss model). Briefly: Histology and immunofluorescence (αSMA, picrosirius red) of fibrosis around PCL implants after treatment. The experiment is classed as in vivo, C57BL/6 mice. The settings on record: PCL implant; treatment 4 weeks after implantation; tissue at 6 weeks; vs isotype or vehicle control. How it is done: All animal procedures were performed in accordance with an approved JHU IACUC protocol. Female mice were aged six to eight weeks-old. Several strains were utilized, including wild type C57BL/6j (Jackson Laboratories, Stock #00064), Rag2/OT-II (Taconic Stock #11490), IL17A-/- and IL17RA-/- (courtesy of Dr. Yoichiro Iwakura, University of Tokyo, Tokyo, Japan and Dr. Tomas Mustelin, Amgen, Seattle, respectively). Defects in muscle for material implantation were created as previously described (68). The resulting bilateral muscle defects were filled with 30 mg of a synthetic material. Synthetic materials tested include PCL (particulate, Mn=50000 g/mol, mean particle size<600 μm, Polysciences), ultrahigh molecular weight PE (particulate, Mn=5000 k g/mol, mean particle size=150 μm, Goodfellow), medical graded Silicone (sheet, Summit Medical), PEG hydrogels. PEG hydrogels were made with polyethylene glycol-diacrylate (PEG-DA, Mn=3400). PEG-DA (Polysciences) in PBS at 10% w/v concentration was mixed with photoinitiator (Irgacure 2959 solubilized to 10% w/v in 70% ethanol) to a final concentration of 0.05%. A 50 μL volume solution was cast onto each well of a flat bottom 96 wells plate. The solution was photocrosslinked via UV light for 30 mins to form a hydrogel sheet. […] Co-administration of anti-I[…] and senolytic treatment were also evaluated. […]

[3] abbreviates: treatment 4 weeks after implantation, tissue at 6 weeks.
The mark [4] stands for this setting: treatment at 4 weeks, 6 weeks after implantation.

In the case of `CC1(C)CCC(c2ccc(Cl)cc2)=C(CN2CCN(c3ccc(C(=O)NS(=O)(=O)c4ccc(N[C@H](CCN5CCOCC5)CSc5ccccc5)c(S(=O)(=O)C(F)(F)F)c4)cc3)CC2)C1` [Navi, Navitoclax], in experiment [1] (one week after treatment, 6 weeks after implantation, p<0.0001), the “p16INK4a gene expression (senolysis)” value was “significantly decreased”. The “Il17a (IL17) gene expression” value in experiment [1] (treatment 4 weeks after implantation, 5 injections, tissue at 6 weeks, vs isotype or vehicle control) is listed as “decreased”. Further, in experiment [1] (setting [3]), the “Collagen I gene expression” value is recorded as “decreased” and the Tgfβ gene expression result is “decreased”. In addition, in experiment [1] (setting [4]), the Il16 gene expression entry is on record as “decreased”, the S100a4 gene expression entry is listed as “decreased” and the “collagen III gene expression” value is “decreased”. Besides, in experiment [2], the αSMA immunofluorescence entry is “reduced”.
